Measurements from patent US6534502B2, “Substituted oximes and hydrazones as neurokinin antagonists” (Schering Corporation, priority 1998, dated 2003).

Experiments:
NK2 receptor = biological target: T1, NK2 receptor (Homo sapiens, UniProt P21452); assay: neurokinin receptor binding assay, NK2
T1 sequence (P21452 1-398): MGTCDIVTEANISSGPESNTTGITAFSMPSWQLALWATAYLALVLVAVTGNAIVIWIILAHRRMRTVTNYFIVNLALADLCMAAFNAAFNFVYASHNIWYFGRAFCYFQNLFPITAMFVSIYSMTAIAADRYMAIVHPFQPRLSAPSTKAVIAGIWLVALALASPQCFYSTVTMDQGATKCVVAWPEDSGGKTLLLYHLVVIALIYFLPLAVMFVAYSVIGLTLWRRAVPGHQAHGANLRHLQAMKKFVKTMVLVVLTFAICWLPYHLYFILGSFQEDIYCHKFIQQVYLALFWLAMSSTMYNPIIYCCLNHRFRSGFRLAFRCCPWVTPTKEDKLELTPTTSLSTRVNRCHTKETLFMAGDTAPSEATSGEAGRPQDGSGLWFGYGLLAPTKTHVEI
Source text: (§1) The in vitro and in vivo activity of the compounds of formula I can be determined by various procedures known in the art, such as a test for their ability to inhibit the activity of the NK1 agonist Substance P, an isolated hamster trachea NK2 assay, a test of the effect of NK1 antagonists on Substance P-induced airway microvascular leakage, measurement of NK2 activity in vivo in guinea pigs, measurement of bronchoconstriction due to NKA, and neurokinin receptor binding assay(s).
(§2) % Inhibition of neurokinin agonist activity is the difference between the percent of maximum specific binding (MSB) and 100%. The percent of MSB is defined by the following equation, wherein “dpm” is disintegrations per minute: [formula]

NK1 receptor = NK1 receptor (Homo sapiens, UniProt P25103); assay: neurokinin receptor binding assay, NK1
Chain of NK1 receptor (P25103 whole entry, species assumed): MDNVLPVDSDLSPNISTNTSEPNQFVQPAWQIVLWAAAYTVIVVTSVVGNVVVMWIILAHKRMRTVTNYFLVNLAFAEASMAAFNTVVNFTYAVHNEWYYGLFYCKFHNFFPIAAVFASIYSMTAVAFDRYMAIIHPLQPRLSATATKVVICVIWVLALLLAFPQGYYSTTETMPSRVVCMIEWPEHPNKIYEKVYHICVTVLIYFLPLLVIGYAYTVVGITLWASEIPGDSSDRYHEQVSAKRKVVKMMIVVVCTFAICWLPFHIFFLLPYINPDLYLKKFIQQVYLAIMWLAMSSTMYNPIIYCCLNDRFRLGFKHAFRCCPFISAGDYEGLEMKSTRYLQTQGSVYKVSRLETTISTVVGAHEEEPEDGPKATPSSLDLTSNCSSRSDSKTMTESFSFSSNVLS
Source text: as §1, with “assay(s). NK3 activity is determined by following a procedure similar to that described in the literature, e.g., Molecular Pharmacol., 48 (1995), p. 711-716.” for “assay(s).”
as §2

NK3 receptor = biological target: T2, NK3 receptor (Homo sapiens, UniProt P29371); assay: neurokinin receptor binding assay, NK3
T2 sequence (P29371 1-465): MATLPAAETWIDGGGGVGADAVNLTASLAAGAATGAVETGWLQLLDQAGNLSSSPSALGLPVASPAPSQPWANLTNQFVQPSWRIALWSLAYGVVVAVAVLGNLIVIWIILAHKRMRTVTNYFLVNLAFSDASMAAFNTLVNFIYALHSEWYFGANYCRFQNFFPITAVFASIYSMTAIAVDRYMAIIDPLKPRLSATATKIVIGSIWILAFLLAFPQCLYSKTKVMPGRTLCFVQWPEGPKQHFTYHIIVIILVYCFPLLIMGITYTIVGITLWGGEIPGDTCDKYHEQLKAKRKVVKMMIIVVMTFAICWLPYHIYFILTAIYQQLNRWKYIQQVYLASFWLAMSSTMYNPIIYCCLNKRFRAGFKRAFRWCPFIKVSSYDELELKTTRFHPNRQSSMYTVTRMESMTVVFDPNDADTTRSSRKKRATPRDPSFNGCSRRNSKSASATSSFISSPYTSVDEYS
Source text: as §1, with “assay(s). NK3 activity is determined by following a procedure similar to that described in the literature, e.g., Molecular Pharmacol., 48 (1995), p. 711-716.” for “assay(s).”
as §2

SMILES | Ki (NK2 receptor) | Ki (NK1 receptor) | Ki (NK3 receptor)
CON=C(CN(C)C(=O)c1cc(Cl)cc(Cl)c1)C(CCN1CCC(N2C(=O)c3ccccc3C2C)CC1)c1ccc(Cl)c(Cl)c1 (stereo not shown) [Example 5B] | 2.8 nM | 0.9 nM | –
CO/N=C(\CN(C)C(=O)c1cc(Cl)cc(Cl)c1)[C@H](CCN1CCC(N2CCCN(CC(=O)N3CCOCC3)C2=O)CC1)c1ccc(Cl)c(Cl)c1 [Example 6E] | 1 nM | 1 nM | 1.5 nM
CON=C(CN(C)C(=O)c1cc(Cl)cc(Cl)c1)C(CCN1CCC(N2CCCN(C(C)(C)C(=O)O)C2=O)CC1)c1ccc(Cl)c(Cl)c1 (stereo not shown) [Example 6M] | 0.5 nM | 0.9 nM | 0.3 nM
CO/N=C(\CN(C)C(=O)c1cc(Cl)cc(Cl)c1)[C@H](CCN1CCC(N2CCCN(Cc3nn[nH]n3)C2=O)CC1)c1ccc(Cl)c(Cl)c1 [Example 6S] | – | – | 2.1 nM
CO/N=C(\CN(C)C(=O)c1cc(Cl)cc(Cl)c1)[C@H](CCN1CCC(N2CCCN(Cc3ccc[n+]([O-])c3)C2=O)CC1)c1ccc(Cl)c(Cl)c1 [Example 6Y] | 0.4 nM | 0.4 nM | 0.4 nM
CO/N=C(\CN(C)C(=O)c1ccc2c(c1)OCO2)[C@H](CCN1CCC(N2CCCNC2=O)CC1)c1ccc(Cl)c(Cl)c1 [Example 7F] | 0.4 nM | 1.8 nM | 3.8 nM
CO/N=C(\CN(C)C(=O)c1cc(Cl)cc(Cl)c1)C(CCN1CCC(N2CCNCC2=O)CC1)c1ccc(Cl)c(Cl)c1 (stereo not shown) [Example 8A] | 0.7 nM | 1.1 nM | 1.2 nM
CO/N=C(\CN(C)C(=O)c1cc(Cl)cc(Cl)c1)C(CCN1CCC(N2CC(=O)N[C@@H](CC(=O)O)C2=O)CC1)c1ccc(Cl)c(Cl)c1 (stereo partly shown) [Example 10B] | 28.9 nM | 2.9 nM | 34.6 nM
CO/N=C(\CN(C)C(=O)c1cc(Cl)cc(Cl)c1)[C@H](CCN1CCC(N2CC(=O)N[C@H](CC(N)=O)C2=O)CC1)c1ccc(Cl)c(Cl)c1 [Example 11A] | 1 nM | 0.8 nM | 1.9 nM
CN(C/C(=N\OC/C(N)=N/O)C(CCN1CCC(N2CCCN(C/C(N)=N/O)C2=O)CC1)c1ccc(Cl)c(Cl)c1)C(=O)c1cc(Cl)cc(Cl)c1 (stereo not shown) [Example 16] | 0.4 nM | 0.4 nM | 0.7 nM
CO/N=C(\CN(C)C(=O)c1cc(Cl)cc(Cl)c1)[C@H](CCN1CCC(n2c(=O)[nH]c3ccccc32)CC1)c1ccc(Cl)c(Cl)c1 [Example 18A] | – | – | 9.8 nM
